In patent publication US7368578B2, “Five-membered heterocyclic compounds” (Takeda Pharmaceutical Company Limited, priority 2002, dated 2008):

Structure (SMILES) | melting point
CCOC(=O)c1cn(Cc2ccccc2)nc1OCc1ccc(OCc2nc(-c3ccco3)oc2C)c(OCc2ccccc2)c1 [Example 48, ethyl 1-benzyl-3-[(3-benzyloxy-4-{[2-(2-furyl)-5-methyl-1,3-oxazol-4-yl]methoxy}benzyl)oxy]-1H-pyrazole-4-carboxylate] | 127 to 128 °C
Cc1oc(-c2ccco2)nc1COc1ccc(COc2nn(Cc3ccccc3)cc2C=O)cc1OCc1ccccc1 [Example 50, 1-benzyl-3-[(3-benzyloxy-4-{[2-(2-furyl)-5-methyl-1,3-oxazol-4-yl]methoxy}benzyl)oxy]-1H-pyrazole-4-carbaldehyde] | 130 to 131 °C
Cc1oc(-c2ccco2)nc1COc1ccc(COc2nn(Cc3ccccc3)cc2C(=O)O)cc1OCc1ccccc1 [Example 51, 1-benzyl-3-[(3-benzyloxy-4-{[2-(2-furyl)-5-methyl-1,3-oxazol-4-yl]methoxy}benzyl)oxy]-1H-pyrazole-4-carboxylic acid] | 184 to 185 °C
CCOC(=O)c1cn(Cc2ccccc2)nc1OCc1ccc(OCc2nc(-c3ccco3)oc2C)cc1OC [Example 52, ethyl 1-benzyl-3-[(4-{[2-(2-furyl)-5-methyl-1,3-oxazol-4-yl]methoxy}-2-methoxybenzyl)oxy]-1H-pyrazole-4-carboxylate] | 137 to 138 °C
COc1cc(OCc2nc(-c3ccco3)oc2C)ccc1COc1nn(Cc2ccccc2)cc1C=O [Example 54, 1-benzyl-3-[(4-{[2-(2-furyl)-5-methyl-1,3-oxazol-4-yl]methoxy}-2-methoxybenzyl)oxy]-1H-pyrazole-4-carbaldehyde] | 147 to 148 °C
CCOC(=O)c1cn(Cc2ccccc2)nc1OCc1ccc(OCc2nc(-c3ccco3)oc2C)c(-c2ccccc2)c1 [Example 56, ethyl 1-benzyl-3-[(4-{[2-(2-furyl)-5-methyl-1,3-oxazol-4-yl]methoxy}-3-phenylbenzyl)oxy]-1H-pyrazole-4-carboxylate] | 134 to 135 °C
Cc1oc(-c2ccco2)nc1COc1ccc(COc2nn(Cc3ccccc3)cc2C(=O)O)cc1-c1ccccc1 [Example 57, 1-benzyl-3-[(4-{[2-(2-furyl)-5-methyl-1,3-oxazol-4-yl]methoxy}-3-phenylbenzyl)oxy]-1H-pyrazole-4-carboxylic acid] | 181 to 182 °C
Cc1oc(-c2ccco2)nc1COc1ccc(COc2nn(Cc3ccccc3)cc2C=O)cc1-c1ccccc1 [Example 59, 1-benzyl-3-[(4-{[2-(2-furyl)-5-methyl-1,3-oxazol-4-yl]methoxy}-3-phenylbenzyl)oxy]-1H-pyrazole-4-carbaldehyde] | 122 to 123 °C
Cc1cc(COc2nn(Cc3ccccc3)cc2C=O)ccc1OCc1nc(-c2ccco2)oc1C [Example 63, 1-benzyl-3-[(4-{[2-(2-furyl)-5-methyl-1,3-oxazol-4-yl]methoxy}-3-methylbenzyl)oxy]-1H-pyrazole-4-carbaldehyde] | 121 to 122 °C
CCOC(=O)c1cn(-c2ccccc2)nc1OCc1oc2cc(OCc3nc(-c4ccccc4)oc3C)ccc2c1-c1ccccc1 [Example 64, ethyl 3-({6-[(5-methyl-2-phenyl-1,3-oxazol-4-yl)methoxy]-3-phenyl-1-benzofuran-2-yl}methoxy)-1-phenyl-1H-pyrazole-4-carboxylate] | 143 to 144 °C
Cc1oc(-c2ccccc2)nc1COc1ccc2c(-c3ccccc3)c(COc3nn(-c4ccccc4)cc3C(=O)O)oc2c1 [Example 65, 3-({6-[(5-methyl-2-phenyl-1,3-oxazol-4-yl)methoxy]-3-phenyl-1-benzofuran-2-yl}methoxy)-1-phenyl-1H-pyrazole-4-carboxylic acid] | 200 to 201 °C
Cc1oc(-c2ccccc2)nc1COc1ccc2c(-c3ccccc3)c(COc3nn(-c4ccccc4)cc3CO)oc2c1 [Example 66, [3-({6-[(5-methyl-2-phenyl-1,3-oxazol-4-yl)methoxy]-3-phenyl-1-benzofuran-2-yl}methoxy)-1-phenyl-1H-pyrazol-4-yl]methanol] | 118 to 119 °C
Cc1oc(-c2ccccc2)nc1COc1ccc2c(-c3ccccc3)c(COc3nn(-c4ccccc4)cc3C=O)oc2c1 [Example 67, 3-({6-[(5-methyl-2-phenyl-1,3-oxazol-4-yl)methoxy]-3-phenyl-1-benzofuran-2-yl}methoxy)-1-phenyl-1H-pyrazole-4-carbaldehyde] | 176 to 177 °C
CCOC(=O)c1cn(Cc2ccccc2)nc1OCc1ccc(OCc2nc(-c3ccco3)oc2C)c(CC)c1 [Example 68, ethyl 1-benzyl-3-[(3-ethyl-4-{[2-(2-furyl)-5-methyl-1,3-oxazol-4-yl]methoxy}benzyl)oxy]-1H-pyrazole-4-carboxylate] | 125 to 126 °C
CCc1cc(COc2nn(Cc3ccccc3)cc2C=O)ccc1OCc1nc(-c2ccco2)oc1C [Example 71, 1-benzyl-3-[(3-ethyl-4-{[2-(2-furyl)-5-methyl-1,3-oxazol-4-yl]methoxy}benzyl)oxy]-1H-pyrazole-4-carbaldehyde] | 128 to 129 °C

Further lines, results first:

melting point | Structure (SMILES)
134 to 135 °C | CCOC(=O)c1cn(Cc2ccccc2)nc1OCc1ccc(OCc2nc(-c3ccco3)oc2C)c(O)c1 [Example 46, ethyl 1-benzyl-3-[(4-{[2-(2-furyl)-5-methyl-1,3-oxazol-4-yl]methoxy}-3-hydroxybenzyl)oxy]-1H-pyrazole-4-carboxylate]
158 to 159 °C | CCOC(=O)c1cn(Cc2ccccc2)nc1OCc1ccc(OCc2nc(-c3ccco3)oc2C)c(Br)c1 [Example 55, ethyl 1-benzyl-3-[(3-bromo-4-{[2-(2-furyl)-5-methyl-1,3-oxazol-4-yl]methoxy}benzyl)oxy]-1H-pyrazole-4-carboxylate]
120 to 121 °C | CCOC(=O)c1cn(Cc2ccccc2)nc1OCc1ccc(OCc2nc(-c3ccco3)oc2C)c(C)c1 [Example 60, ethyl 1-benzyl-3-[(4-{[2-(2-furyl)-5-methyl-1,3-oxazol-4-yl]methoxy}-3-methylbenzyl)oxy]-1H-pyrazole-4-carboxylate]
176 to 177 °C | Cc1cc(COc2nn(Cc3ccccc3)cc2C(=O)O)ccc1OCc1nc(-c2ccco2)oc1C [Example 61, 1-benzyl-3-[(4-{[2-(2-furyl)-5-methyl-1,3-oxazol-4-yl]methoxy}-3-methylbenzyl)oxy]-1H-pyrazole-4-carboxylic acid]
173 to 174 °C | CCc1cc(COc2nn(Cc3ccccc3)cc2C(=O)O)ccc1OCc1nc(-c2ccco2)oc1C [Example 69, 1-benzyl-3-[(3-ethyl-4-{[2-(2-furyl)-5-methyl-1,3-oxazol-4-yl]methoxy}benzyl)oxy]-1H-pyrazole-4-carboxylic acid]
184 to 185 °C | COc1cc(COc2nn(-c3ccccc3)cc2C(=O)O)ccc1OCc1nc(-c2ccco2)oc1C [Example 73, 3-[(4-{[2-(2-furyl)-5-methyl-1,3-oxazol-4-yl]methoxy}-3-methoxybenzyl)oxy]-1-phenyl-1H-pyrazole-4-carboxylic acid]
175 to 176 °C | COc1cc(COc2nn(-c3ccccc3)cc2C(N)=O)ccc1OCc1nc(-c2ccco2)oc1C [Example 74, 3-[(4-{[2-(2-furyl)-5-methyl-1,3-oxazol-4-yl]methoxy}-3-methoxybenzyl)oxy]-1-phenyl-1H-pyrazole-4-carboxamide]
